The structures appear in SMILES notation.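 Step 1: Grow cells in 96-well plates. Step 2: Expose to compound for 48 hours at 5 concentrations. Step 3: Interpolate endpoints linearly; if unreached, use highest concentration. TGI denotes the concentration required for complete inhibition of growth.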

Among the test systems are MCF7 breast; SNB-75 CNS; COLO 205 colon; A498 renal; HCT-15 colon; PC-3 prostate; ACHN renal; MDA-N; SK-MEL-5 melanoma; MOLT-4 leukemia; 786-0 renal; SK-MEL-28 melanoma; MDA-MB-231 breast; SF-295 CNS; UO-31 renal; HL-60(TB) leukemia.
Common to all, as to experiment: growth of human tumour cells (NCI), 48 h

Consider `COc1cc(C2C3=C(COC3=O)Oc3cc4c(cc32)OCO4)ccc1O` (stereo not drawn), for which the TGI is above 100 µM in the test with MCF7 breast; 0.652 µM in the test on SNB-75 CNS; 0.576 µM in the test on COLO 205 colon; above 25.7 µM with A498 renal; above 100 µM in the test with HCT-15 colon; above 83.2 µM with PC-3 prostate. Also, the TGI in the test with ACHN renal is above 94.7 µM; in the test with MDA-N it was 0.346 µM; in the test with SK-MEL-5 melanoma, 0.736 µM; in the test with MOLT-4 leukemia it was above 100 µM; with 786-0 renal it was above 100 µM; in the test with SK-MEL-28 melanoma, above 100 µM.

On to `Clc1cc2nn(C3CCCCO3)nc2cc1Cl` (stereo not drawn), for which the TGI with MCF7 breast, in the test on SNB-75 CNS, in the test with COLO 205 colon, in the test on MDA-MB-231 breast, in the test with HCT-15 colon and with PC-3 prostate was above 100 µM in each case. Further, the TGI with SF-295 CNS, with ACHN renal, in the test with MDA-N, in the test on SK-MEL-5 melanoma, with UO-31 renal and in the test on MOLT-4 leukemia was above 100 µM each time. The same compound registered a TGI in the test with 786-0 renal above 100 µM.

For `Nc1ccc2[nH]c(-c3cccc(C(F)(F)F)c3)cc(=O)c2c1`, the TGI is above 100 µM with MCF7 breast; 96.9 µM in the test with SNB-75 CNS; above 100 µM in the test with COLO 205 colon; above 100 µM with MDA-MB-231 breast; 82.9 µM with A498 renal; above 100 µM in the test with HCT-15 colon. Also, the TGI is 97.7 µM in the test on PC-3 prostate; above 100 µM with ACHN renal; above 100 µM in the test with SK-MEL-5 melanoma; above 100 µM in the test on UO-31 renal; above 100 µM in the test on MOLT-4 leukemia; above 100 µM in the test on 786-0 renal. In the test on SK-MEL-28 melanoma, the TGI was above 100 µM.

`COc1cccc(/C=N/NC(=O)CSCC(=O)N/N=C/c2cccc(OC)c2OC)c1OC`: the TGI with MCF7 breast, with SNB-75 CNS, in the test with COLO 205 colon, in the test on MDA-MB-231 breast, with A498 renal and in the test on HCT-15 colon was above 100 µM each time. For the same compound, the TGI with PC-3 prostate, in the test with HL-60(TB) leukemia, in the test on SF-295 CNS, with ACHN renal, with SK-MEL-5 melanoma and in the test with UO-31 renal was above 100 µM each time. Also, the TGI with MOLT-4 leukemia, in the test on 786-0 renal and in the test on SK-MEL-28 melanoma was above 100 µM each time.

As for `CC12C3C4C1C1C2C3C41CO` (stereo not drawn), the TGI in the test with MCF7 breast, with SNB-75 CNS, in the test with COLO 205 colon, with MDA-MB-231 breast, in the test on A498 renal and in the test with HCT-15 colon was above 100 µM in each case. The TGI with HL-60(TB) leukemia, in the test on SF-295 CNS, in the test with ACHN renal, in the test with MDA-N, in the test on SK-MEL-5 melanoma and in the test on UO-31 renal was above 100 µM each time. Also, the TGI in the test on MOLT-4 leukemia, in the test on 786-0 renal and in the test on SK-MEL-28 melanoma was above 100 µM each time.

As for `CC(=O)c1[nH]c(NC(C)C)c(C(=S)Nc2ccccc2)c1N`, the TGI with MCF7 breast was 42.2 µM; with SNB-75 CNS, above 100 µM; in the test with COLO 205 colon, above 100 µM; in the test with MDA-MB-231 breast, 66.3 µM; in the test with A498 renal, 82.9 µM; in the test on HCT-15 colon, above 100 µM. Besides, the TGI is above 100 µM in the test on HL-60(TB) leukemia; above 100 µM in the test on SF-295 CNS; above 100 µM with ACHN renal; 61.3 µM with MDA-N; 42.2 µM in the test with SK-MEL-5 melanoma; 77.7 µM with UO-31 renal. For the same compound, the figures for the TGI with MOLT-4 leukemia, in the test on 786-0 renal and with SK-MEL-28 melanoma were above 100 µM, 61.8 µM and 87.7 µM, respectively.

Regarding `O=C(CN(C(=O)OC12CC3CC(CC(C3)C1)C2)C(=O)OC12CC3CC(CC(C3)C1)C2)Oc1ccc([N+](=O)[O-])cc1`, the TGI in the test on MCF7 breast, in the test on SNB-75 CNS, in the test on COLO 205 colon, in the test with MDA-MB-231 breast, in the test on HCT-15 colon and with PC-3 prostate was above 100 µM each time. Moreover, the TGI in the test on SF-295 CNS, in the test on ACHN renal, in the test with MDA-N, in the test on SK-MEL-5 melanoma, in the test on UO-31 renal and in the test with MOLT-4 leukemia was above 100 µM throughout. For the same compound, the TGI in the test with 786-0 renal and in the test on SK-MEL-28 melanoma was above 100 µM throughout.

For the compound `COC(=O)c1cc(C(=O)OC)c(CC(=O)C(=O)NC2C3CC4CC(C3)CC2C4)nc1CC(=O)C(=O)NC1C2CC3CC(C2)CC1C3` (stereo not drawn), the TGI in the test on SNB-75 CNS, in the test on COLO 205 colon, in the test on A498 renal, in the test on HCT-15 colon, in the test with HL-60(TB) leukemia and in the test with SF-295 CNS was above 100 µM each time. In addition, the TGI with ACHN renal, in the test on SK-MEL-5 melanoma, in the test on UO-31 renal, with MOLT-4 leukemia, with 786-0 renal and with SK-MEL-28 melanoma was above 100 µM in each case.

Take `CCOP(=O)(OCC)/C(C#N)=C/c1cccn1C(C)C`: the TGI with SNB-75 CNS, in the test on COLO 205 colon, in the test with MDA-MB-231 breast, in the test on A498 renal, in the test on HCT-15 colon and with PC-3 prostate was above 100 µM each time. Also, the TGI in the test on SF-295 CNS, in the test on ACHN renal, in the test on MDA-N, in the test with SK-MEL-5 melanoma, in the test with UO-31 renal and with MOLT-4 leukemia was above 100 µM each time. Moreover, the TGI in the test with 786-0 renal and in the test on SK-MEL-28 melanoma was above 100 µM each time.

`COC1CCON1C(=O)c1ccccc1` (stereo not drawn): the TGI in the test with MCF7 breast, in the test with SNB-75 CNS, with COLO 205 colon, in the test on MDA-MB-231 breast, in the test on HCT-15 colon and in the test with PC-3 prostate was above 10 µM throughout. Besides, the TGI with HL-60(TB) leukemia, with SF-295 CNS, with ACHN renal, in the test with MDA-N, in the test with SK-MEL-5 melanoma and in the test with UO-31 renal was above 10 µM each time. Besides, the TGI in the test with MOLT-4 leukemia, in the test on 786-0 renal and with SK-MEL-28 melanoma was above 10 µM in each case.

These data come from PubChem BioAssay (NCI).
